Two substances from article PMC13376213, “Systematic discovery of motif-based interactions of the auxiliary domains of USP family deubiquitinases” (Nature Communications, 2026) can be followed below.

The subject of one test is FLAG-USP20. Put plainly: IP-MS of FLAG-USP20 and variants vs empty vector. The class given is cell-based, human. As to conditions: IP-MS, FLAG-USP20-ΔUBP vs EV; comparison bh_2 Sample_Limma_ImpMedInt_USP20_UBP_domain/EV.
A further test deals with FLAG-USP33. Put plainly: IP-MS of FLAG-USP33 and variants vs empty vector. The class given is cell-based, human. The method, then:
For transfection, 1x10^6 HEK293 cells were seeded in 10 cm dishes with DMEM, 10% FBS, 1% L-G (without antibiotic) medium, incubated at 37 °C, with 5 % CO2 for 24 h. Cells were transfected with a transfection mix containing […] of Opti-MEM (Thermo Fisher Scientific), 20 μL of PEI stock (1 mg/mL) and […] of the desired cDNA. For co-transfection, 2.5 μg of DNA of each plasmid was used. The mix was vortexed for 15 s and incubated at room temperature for 15–20 min. The transfection mix was added to the dish and gently mixed. Plates were incubated at 37 °C for 36–48 h before harvesting. For USP33 constructs, 5 μM Bortezomib (proteasome inhibitor) was added 4 hours before harvesting the cells.
FLAG fusion proteins were immunoprecipitated from HEK293 cells transfected with plasmids encoding the protein of interest using the anti-FLAG M2 affinity gel from Sigma-Aldrich. Cell pellets were lysed with 100–200 μL/per dish lysis buffer (Pierce RIPA buffer, 1X protease inhibitor (Roche), 50 unit/μL of Benzonase Nuclease) rotating at 4 °C for 30–45 min. […] The cell lysate was clarified by centrifugation at 17,000 x g, at 4 °C for 12 min, and the supernatant was transferred to a clean, pre-chilled low-binding Eppendorf tube. […] The IP samples were centrifuged at 6500 x g at 4 °C for 30 s. The supernatant containing the unbound proteins was transferred to a clean tube. The resin was washed three times with 500 μL of TBS, centrifuged at 6500 x g at 4 °C for 30 s. The bound FLAG fusion protein was eluted with 100 μL of 150 ng/μL 3X FLAG peptide (Sigma) in TBS and incubated in the cold room for 1 h or overnight. The tube was centrifuged at 6500 x g at 4 °C for 30 s; the eluted proteins were transferred to a clean tube. The eluted proteins were prepared for analysis by western blot or Mass Spectrometry.
Immunoprecipitation (IP) was carried out as described above; four technical replicates of each IP condition were performed, and the empty vector was used as a negative control. The eluted protein was processed following the Strap-micro protocol (Protifi). The IP elution containing 1–100 μg protein was 1:1 mixed with 2X lysis buffer (10% SDS, 100 mM TEAB pH 8.5). […] Samples were vortexed, mixed with 165 μL of 100 mM TEAB in 90% methanol, and passed through an S-Trap micro column at 4000 g for 30 s to trap the proteins. The column was washed with 150 μL of 100 mM TEAB in 90% methanol (at 4,000 x g for 30 seconds) three times. The S-Trap column was centrifuged again and transferred to a clean 2 mL tube for digestion with 20 μL of digestion buffer (1 μg trypsin per 10 μg sample in 50 mM TEAB), at 37 °C overnight in a thermomixer without shaking. The digested peptides were eluted with […] of 50 mM TEAB in water, […] of 0.2 % formic acid in water, and […] of 50 % acetonitrile in water, centrifuging at 4000 x g for 1 min each time. The three elutions were pooled in a low-binding tube, placed on dry ice until frozen, dried in a SpeedVac vacuum (Thermo Scientific), and proceeded with the LCMS analysis.
Eluted peptides were resuspended in water supplemented with 0.015% dodecyl maltoside and 0.1% formic acid and were injected on a Vanquish Neo UHPLC System operating in trap and elute mode coupled to an Orbitrap Astral Mass Spectrometer (Thermo Fisher Scientific). […] Eluted peptides were analyzed using data-independent acquisition mode on the mass spectrometer.
Peptides were searched against the Uniprot Swissprot Human database (released on 02/01/2023) supplemented with the USP20 and USP33 mutants using DiaNN (v1.9.0)[62] operating in library-free mode. Data filtering and statistical analysis were carried out in Python (v3.9.0) using the packages pandas, numpy, sklearn, scipy, rpy2, Plotnine, and Plotly and R (v4.4.3) using the package limma.
Protein groups identified with a single peptide or quantified in fewer than three replicates in at least 1 condition were filtered out. […]

The target in another test is T1, USP20 zf-UBP domain (Homo sapiens, UniProt Q9Y2K6).
T1 construct: USP20_UBP; Q9Y2K6; zf-UBP; 99; 6xHis-GST (N, cleaved yes); made in house; host or cells: Escherichia coli BL21-Gold (DE3)
T1 sequence (Q9Y2K6 4-99): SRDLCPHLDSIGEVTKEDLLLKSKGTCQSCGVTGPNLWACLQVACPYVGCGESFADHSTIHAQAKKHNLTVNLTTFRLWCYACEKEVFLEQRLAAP
Put plainly: Peptide SPOT array, USP20 zf-UBP. The class given is binding. As to conditions: array of 120 peptides probed with GST-tagged zf-UBP domains of USP20 and USP33.

Protocol for USP20 zf-UBP domain: Proteins were expressed in Escherichia coli (E.coli) BL21-Gold (DE3) bacteria. The cDNAs encoding N-terminal 6-histidine-glutathione S-transferase tagged (6xHis-GST), 6xHis-tagged or GST-tagged protein domains in pETM33, pETM11, pGEX6P1 expression vectors respectively, were obtained from Genescript or kindly provided by MRC-PPU (Suppl. Data 1) The bacteria were transformed with the plasmid and grew at 37 °C in 2YT (5 g/L NaCl, 16 g/L tryptone and 10 g/L yeast extract) supplemented with Kanamycin (30 μg/mL) until reaching an OD600 of 0.7. Protein expression was induced with 0.3 mM isopropyl β-D-1 thiogalactopyranoside (IPTG) for 18 h at 18 °C while shaking. For zinc-finger domains, 50 μM of ZnSO4 was added during expression. […] For fluorescence polarization experiments, the proteins were not eluted from the beads, and the 6xHis-GST tag was cleaved overnight on GSH Sepharose beads at 4 °C while shaking with PreScission Protease in cleavage buffer (50 mM Tris pH 7.5, 150 mM NaCl, 1 mM DTT). […] The purity and size of the proteins were analyzed by SDS-PAGE electrophoresis.
Peptides were synthesized on cellulose membranes with standard Fluoroenylmethylox-ycarbonyl (Fmoc) chemistry using a Multipep automated synthesizer at INTAVIS (Tübingen, Germany) or ordered from JPT (PepSpots). […] The images were analyzed in Fiji (ImageJ2 version 2.9.0).

For the substance ESYT2, the log2_FC with FLAG-USP20 was 1.764; in the test on FLAG-USP33 (IP-MS, FLAG-USP33 UBP mutant vs EV, comparison USP33_E86K_D90R/EV, Limma) it was 1.582; in the test on FLAG-USP33 (IP-MS, FLAG-USP33 vs EV, comparison USP33_wt/EV, Limma) it was 1.824; in the test on FLAG-USP33 (Table S7c USP33 MS_and_motif, bait USP33), 1.824.

Regarding TQNLEDREVLNGVQTE [PARD3B], the “binding in peptide SPOT array, USP20 versus USP33 zf-UBP” value at USP20 zf-UBP domain was “only bound to USP20”.
